Results from ChEMBL document CHEMBL5233205, “VISTA inhibitors in cancer immunotherapy: a short perspective on recent progresses” (RSC Med Chem, 2021).
Positions of bridges follow the written chain, without caps; N, C: chain ends. Non-standard residues stand in square brackets, D forms with d. Residues, ends and D or L forms follow the SMILES beside them. *: point of attachment. X1 = N[C@@H](CO)C(=O)N[C@@H](Cc1ccccc1)C(=O)NCCCCN*; NMeT = CN[C@H](C(=O)O)[C@@H](C)O

How the values were obtained:
[1] = tested on: Splenocyte; test: Cytoprotective activity against anti-CD3/CD28 stimulated mouse splenocyte assessed as rescue of cell proliferation at 100 nM incubated for 72 hrs by CFSE staining based flow cytometric analysis; format: functional
[2] = biological target: T1, V-type immunoglobulin domain-containing suppressor of T-cell activation (Homo sapiens, UniProt Q9H7M9); test: Binding affinity to recombinant human His-tagged VISTA ECD incubated for 2 hrs by TR-FRET assay
T1 sequence (Q9H7M9 whole entry): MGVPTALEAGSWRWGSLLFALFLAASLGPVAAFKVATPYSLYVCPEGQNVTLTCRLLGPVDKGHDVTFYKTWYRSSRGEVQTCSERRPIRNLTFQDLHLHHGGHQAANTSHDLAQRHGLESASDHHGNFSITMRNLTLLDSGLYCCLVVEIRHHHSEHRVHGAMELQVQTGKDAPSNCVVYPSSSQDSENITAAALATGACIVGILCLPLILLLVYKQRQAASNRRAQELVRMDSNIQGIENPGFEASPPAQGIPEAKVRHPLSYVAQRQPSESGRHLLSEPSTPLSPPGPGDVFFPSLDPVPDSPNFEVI

[3] = biological target: T1, V-type immunoglobulin domain-containing suppressor of T-cell activation; test: Binding affinity to recombinant human VISTA ECD incubated for 2 hrs by ELISA assay
[4] = tested on: Splenocyte; test: Cytoprotective activity against anti-CD3/CD28 stimulated mouse splenocyte assessed as rescue of PD-L1 stimulated inhibition of proliferation at 100 nM incubated for 72 hrs by CFSE staining based flow cytometric analysis; design: scale not given: the % may be the effect or the level left
[5] = biological target: T1, V-type immunoglobulin domain-containing suppressor of T-cell activation; test: Inhibition of VISTA (unknown origin) incubated for 15 mins by LANCE Ultra TR-FRET assay
[6] = tested on: Splenocyte; test: Cytoprotective activity against anti-CD3/CD28 stimulated mouse splenocyte co-cultured with MDA-MB-231 cells overexpressing PD-L1 assessed as rescue of cell proliferation at 100 nM incubated for 72 hrs by CFSE staining based flow cytometric analysis relative to control; format: functional
[7] = biological target: Programmed cell death 1 ligand 1 (Homo sapiens, UniProt Q9NZQ7); test: Inhibition of His-tagged human recombinant PD-L1 incubated for 15 mins by LANCE Ultra TR-FRET assay
Sequence of Programmed cell death 1 ligand 1 (Q9NZQ7 whole entry): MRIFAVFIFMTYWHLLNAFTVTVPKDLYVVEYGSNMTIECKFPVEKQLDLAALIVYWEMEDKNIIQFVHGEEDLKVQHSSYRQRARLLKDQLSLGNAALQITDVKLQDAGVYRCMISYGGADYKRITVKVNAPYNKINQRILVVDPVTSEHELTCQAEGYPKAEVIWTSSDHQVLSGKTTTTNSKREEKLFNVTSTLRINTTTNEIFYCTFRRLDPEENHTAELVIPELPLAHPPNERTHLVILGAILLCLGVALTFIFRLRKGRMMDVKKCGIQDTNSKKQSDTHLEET

[8] = Half life in mouse liver microsomes at 1 uM by LC-MS/MS analysis; format: ADME, Microsome
[9] = tested on: B16-F10; test: Antimetastatic activity against mouse B16-F10 cells implanted in C57BL/6 mouse assessed as decrease in lung metastasis at 5 mg/kg,sc and measured after 14 days; format: functional; design: scale not given: the % may be the effect or the level left; conditions: time 14 day

For `NCCCC[C@H](NC(=O)N[C@@H](CC(N)=O)C(=O)NNC(=O)[C@@H](N)CO)C(=O)O`, the Activity [1] was 87%.
`CN(C)c1n/c(=N\Cc2ccco2)ss1` showed an IC50 [2] of 4800 nM and an IC50 [3] of 9700 nM.
In the case of `C[C@H](O)[C@H](NC(=O)N[C@@H](CC(N)=O)c1nc([C@@H](N)CO)no1)C(=O)O`, the Activity [4] is reported as >70%, the Activity [1] is reported as 97% and the EC50 [5] is reported as 82.9 nM. It also gave an Activity [6] of 89% and an EC50 [7] of 66.1 nM.
With `CC[C@H](C)[C@H](NC(=O)[C@H](CCC(N)=O)NC(=O)[C@H](C)NC(=O)[C@H](CCCCN)NC(=O)[C@@H]1CCCN1C(=O)[C@H](C)NC(=O)[C@H](CC(C)C)NC(=O)[C@H](CCC(N)=O)NC(=O)[C@@H](NC(=O)[C@@H](NC(=O)[C@H](CCCNC(=N)N)NC(=O)[C@H](Cc1ccccc1)NC(=O)[C@H](CCCCN[C@@H](Cc1ccccc1)C(=O)N[C@@H](CO)C(=O)N[C@@H](CCC(=O)O)C(=O)N[C@@H](CO)C(=O)N[C@H](C(=O)N[C@@H](CC(N)=O)C(=O)N[C@@H](CO)C(=O)O)[C@@H](C)O)NC(=O)[C@H](Cc1ccccc1)NC(=O)[C@H](CO)NC(=O)[C@H](CCC(=O)O)NC(=O)[C@H](CO)NC(=O)[C@@H](NC(=O)[C@H](CC(N)=O)NC(=O)[C@@H](N)CO)[C@@H](C)O)C(C)C)[C@@H](C)O)C(=O)N[C@@H](CCCCN)C(=O)N[C@@H](CCC(=O)O)C(=O)O` the half-life at 1 µM [8] was > 1.5 h.
`C[C@H](O)[C@@H]1NC(=O)N[C@@H](CC(N)=O)C(=O)NNC(=O)[C@H](CO)NC(=O)COCCOCCNC1=O` gave an Activity [1] of 87%.
Work on `C[C@H](O)[C@H](NC(=O)N[C@@H](CC(N)=O)c1nc([C@@H](N)CCCCN)no1)C(=O)O` yielded an Activity [4] of 96% and an Activity [1] of 50%.
In the case of `CCCNC(=O)CC[C@H](NC(=O)N[C@H](C(=O)O)[C@H](C)O)c1nc([C@@H](N)CO)no1`, the Activity [4] is reported as 119% and the Activity [1] is reported as <50%.
For `C[C@H](O)[C@H](NC(=O)N[C@@H](CC(N)=O)c1nc(C2(N)CCCCC2)no1)C(=O)O`, the Activity [1] was 86%.
For `C[C@@H](O)[C@H]1C(=O)N[C@@H](CO)C(=O)N[C@H](C(=O)N[C@@H](CO)C(=O)N[C@@H](Cc2ccccc2)C(N)=O)CCCCNC(=O)CC[C@H](NC(=O)[C@@H](N)CO)C(=O)N1C` (H-SE[NMeT]SKSF-NH2; lactam 2-5), the Activity [1] was 82%.
`C[C@@H](O)[C@@H]1NC(=O)[C@@H](NC(=O)[C@@H](N)CO)CCCCNC(=O)CC[C@@H](C(=O)N[C@@H](CO)C(=O)N[C@@H](Cc2ccccc2)C(N)=O)NC(=O)[C@H](CO)NC1=O` (H-SKTSESF-NH2; lactam 2-5) gave an Activity [6] of 60%.
For `C[C@@H](O)[C@H](NC(=O)[C@H](CCC(N)=O)NC(=O)[C@@H](N)CO)C(=O)N[C@@H](CO)C(=O)N[C@@H](CCC(=O)NCCCCNC(=O)[C@H](Cc1ccccc1)NC(=O)[C@@H](N)CO)C(N)=O` (H-SQTSE(X1)-NH2), the Activity [9] was 64%.
